Assay results reported in publication PMC5914176 (Journal of medicinal chemistry, 2018).
Where “and” joins values, the source holds several entries; their conditions need not be identical. Equal values may be shown once. Read-outs that look alike come from different tables or passages of the source. Blank lines part the entries; values can stand above or below the compound they belong to.

Experiments:
[1] = in vitro; settings: female, CD9, mouse, microsomes, three replicates
[2] = molecular target: T1, DCN1-UBE2M interaction (Homo sapiens, UniProt Q96GG9); settings: previously reported potency; cited from earlier work
T1 sequence (Q96GG9 whole entry): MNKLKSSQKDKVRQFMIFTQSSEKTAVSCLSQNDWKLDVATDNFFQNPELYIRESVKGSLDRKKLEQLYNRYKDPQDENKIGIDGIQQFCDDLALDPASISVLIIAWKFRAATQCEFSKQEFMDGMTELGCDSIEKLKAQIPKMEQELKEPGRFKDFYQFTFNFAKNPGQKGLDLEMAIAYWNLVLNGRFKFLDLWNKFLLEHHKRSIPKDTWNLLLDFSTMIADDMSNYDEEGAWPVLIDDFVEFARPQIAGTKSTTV

[3] = Liver microsomal stability; settings: for t(1/2): mouse microsomes, 0.8 μM, mean ± SD, three replicates
[4] = system: HCC95 cells; settings: cited from earlier work
[5] = molecular target: T1, DCN1-UBE2M interaction; assay: biochemical; type: binding
[6] = for adverse reactions or compound-related side effects after IV dosing: 48 h monitoring after single IV dose
[7] = type: in vivo, mice; settings: 14 days, 200 mg/kg oral QD or BID
[8] = system: HCC95 cells; settings: cited from earlier work; remark: listed apart in the source
[9] = in vivo; design: species or system mice
[10] = system: DCN1/2 over remaining human DCN isoforms; settings: cited from earlier work
[11] = system: HCC95 cells; assay: Western blot for cellular neddylation and substrate levels; type: cell-based
[12] = in vivo; settings: mouse, iv, 1.5 mg/kg, t1/2 (IV half-life), IV 0.5, 1.0 and 1.5 mg/kg, plasma
[13] = pH 7.4, CLint, Table 1, mean ± SD
[14] = pH 7.4, CLint’, Table 2, mean ± SD
[15] = IC50, rounded values in running text
[16] = pH 7.4, CLint’, Table 3, mean ± SD
[17] = female, CD9, mouse, microsomes, pH 7.4
[18] = pH 7.4, CLint’, Table 5, mean ± SD

Compound: CCCN1CCC(N(Cc2ccc3c(c2)OCO3)C(=O)Nc2cccc(C(F)(F)F)c2)CC1 [Compound 1]
CLint scaled at 0.8 μM [1, 13]: > 500 mL/min/kg

Compound: O=C(Nc1cccc(C(F)(F)F)c1)NC1CCN(Cc2ccccc2)CC1 [Compound 2]
CLint scaled at 0.8 µM [1, 13]: 91.4 ± 8.12 mL/min/kg

Compound: CCCN1CCC(N(Cc2ccco2)C(=O)Nc2cccc(C(F)(F)F)c2)CC1 [Compound 3]
CLint scaled at 0.8 µM [1, 13]: 394 ± 55.2 mL/min/kg

Compound: CCCN1CCC(N(Cc2ccccc2)C(=O)Nc2cccc(C(F)(F)F)c2)CC1 [Compound 4]
CLint scaled at 0.8 µM [1, 13]: 318 ± 29.6 mL/min/kg

Compound: O=C(Nc1cccc(C(F)(F)F)c1)N(Cc1ccccc1)C1CCN(CC2CC2)CC1 [Compound 5]
CLint scaled at 0.8 μM [1, 13]: > 500 mL/min/kg

Compound: CCCCN1CCC(N(Cc2ccccc2)C(=O)Nc2cccc(C(F)(F)F)c2)CC1 [Compound 6]
CLint scaled at 0.8 µM [1, 13]: 361 ± 45.1 mL/min/kg

Compound: CCCC(C)N1CCC(N(Cc2ccccc2)C(=O)Nc2cccc(C(F)(F)F)c2)CC1 (stereo not shown) [Compound 7, 1-benzyl-1-(1-(pentan-2-yl)piperidin-4-yl)-3-(3-(trifluoromethyl)phenyl)urea]
IC50 [2]: 60 nM | t(1/2) ([3]; Table 1): 0.327 ± 0.010 h | CLint scaled at 0.8 μM [1, 13]: 165 ± 25.9 mL/min/kg | steady-state levels of cullin neddylation ([4]; HCC95 cells): suppresses steady-state levels of cullin neddylation | fold more potent than initial hit (compound 2) [5]: 100 fold | adverse reactions or compound-related side effects after IV dosing [6]: We did not observe any adverse reactions or compound-related side effects | t1/2 (IV half-life) ([6]; IV 0.5, 1.0 and 1.5 mg/kg, plasma): 8.4 to 12 min

Compound: CCCCN1CCC(N(Cc2ccc3c(c2)OCO3)C(=O)Nc2cccc(C(F)(F)F)c2)CC1 [Compound 8]
CLint scaled at 0.8 µM [1, 13]: 220 ± 12.8 mL/min/kg

Compound: CC(C)(C)N1CCC(N(Cc2ccc3c(c2)OCO3)C(=O)Nc2cccc(C(F)(F)F)c2)CC1 [Compound 9]
CLint scaled at 0.8 µM [1, 13]: 434 ± 21.1 mL/min/kg

Compound: CCCN1CCC(N(Cc2cc(F)cc(C(F)(F)F)c2)C(=O)Nc2cccc(C(F)(F)F)c2)CC1 [Compound 10]
CLint scaled at 0.8 µM [1, 13]: 199 ± 9.99 mL/min/kg

Compound: CCCC(C)N1CCC(N(Cc2ccccc2)C(=O)Nc2ccc(Cl)cc2)CC1 (stereo not shown) [Compound 25]
CLint scaled at 0.8 µM [1, 14]: 156 ± 10.7 mL/min/kg | IC50 ([5]; IC50): 100 nM

Compound: CCCC(C)N1CCC(N(Cc2ccccc2)C(=O)Nc2ccc(Br)cc2)CC1 (stereo not shown) [Compound 26]
CLint scaled at 0.8 µM [1, 14]: 148 ± 7.63 mL/min/kg | IC50 [5, 15]: ~60 nM

Compound: CCCC(C)N1CCC(N(Cc2ccccc2)C(=O)Nc2ccc(I)cc2)CC1 (stereo not shown) [Compound 27]
CLint scaled at 0.8 µM [1, 14]: 115 ± 2.78 mL/min/kg | IC50 [5, 15]: ~60 nM and 50 nM

Compound: CCCC(C)N1CCC(N(Cc2ccccc2)C(=O)Nc2ccc(C#N)c(C(F)(F)F)c2)CC1 (stereo not shown) [Compound 34]
CLint scaled at 0.8 µM [3, 17]: 61.3 ± 3.49 mL/min/kg | CLint scaled at 0.8 μM [3, 17]: 60 mL/min/kg

Compound: CCCCN1CCC(N(Cc2ccccc2)C(=O)Nc2cc(F)cc(C(F)(F)F)c2)CC1 [Compound 47]
CLint scaled at 0.8 µM [1, 18]: 22.3 ± 4.88 mL/min/kg | fold reduction in biochemical potency versus compound 7 [5]: five-fold

Compound: CCCCN1CCC(N(Cc2ccccc2)C(=O)Nc2ccc(Cl)c(Cl)c2)CC1 [Compound 67, 1-benzyl-1-(1-butylpiperidin-4-yl)-3-(3,4-dichlorophenyl)urea]
adverse reactions or compound-related side effects, repeat dosing [7]: no adverse reactions or compound-related side effects were observed | anchorage-independent growth [8]: inhibits the anchorage-independent growth of HCC95 cells | fold lower clearance in mouse microsomes than compound 7: six-fold | t(1/2) ([3]; Table 5): 2.11 ± 0.336 h | bioavailability predicted from in vitro clearance (Fin vitro) ([3]; calculated by 1 - CL/Qh): 78% | CLint scaled at 0.8 μM [1, 18]: 25.6 ± 4.08 mL/min/kg | adverse reaction after oral administration ([9]; 48 h monitoring, any dose tested): did not cause a significant adverse reaction at any dose tested | half-life ([9]; mouse, in vivo, po, 200 mg/kg): 3 to 5 h | selectivity for DCN1/2 over other DCN isoforms [10]: high level of selectivity for inhibition of DCN1/2 over the highly homologous remaining human DCN isoforms | steady-state levels of neddylated cullins (selectivity among cullins) ([4]; HCC95): selectively reduces steady-state levels of neddylated CUL1 and CUL3 while CUL2, CUL4A, and CUL5 are relatively unaffected | gross substrate stabilization ([11]; HCC95): does not elicit gross substrate stabilization | steady-state levels of neddylated CUL1 and CUL3 ([11]; HCC95, 48 hours, dosing at T = 0 and T = 24 hr): inhibits steady-state levels of neddylated CUL1 and CUL3 in a dose-dependent manner | levels of CUL1/CUL3 substrates NRF2 and p27 ([11]; HCC95, 48 hours, longer exposures): dose-dependent increase | adverse reactions or compound-related side effects after IV dosing [6]: failed to induce any measureable adverse reactions | half-life [12]: 3 to 4 h

Compound: CCCCN1CCC(N(Cc2ccccc2)C(=O)Nc2cccc(C(F)(F)F)c2F)CC1 [Compound 69]
CLint scaled at 0.8 μM [1, 18]: ≥ 500 mL/min/kg

Compound: CCCCN1CCC(N(Cc2ccccc2)C(=O)Nc2ccc(F)c(C(F)(F)F)c2)CC1 [Compound 70]
CLint scaled at 0.8 µM [1, 18]: 27.9 ± 2.71 mL/min/kg

The next lines start with the values.

CLint scaled at 0.8 μM [1, 14]: ≥ 500 mL/min/kg
Compound: CCCC(C)N1CCC(N(Cc2ccccc2)C(=O)Nc2cccc(F)c2)CC1 (stereo not shown) [Compound 21]

CLint scaled at 0.8 μM [1, 14]: ≥ 500 mL/min/kg
Compound: CCCC(C)N1CCC(N(Cc2ccccc2)C(=O)Nc2cccc(Cl)c2)CC1 (stereo not shown) [Compound 22]

CLint scaled at 0.8 µM [1, 14]: 256 ± 22.4 mL/min/kg
Compound: CCCC(C)N1CCC(N(Cc2ccccc2)C(=O)Nc2cccc(C(C)C)c2)CC1 (stereo not shown) [Compound 23]

CLint scaled at 0.8 µM [1, 14]: 125 ± 3.17 mL/min/kg
Compound: CCCC(C)N1CCC(N(Cc2ccccc2)C(=O)Nc2ccc(C(F)(F)F)cc2)CC1 (stereo not shown) [Compound 24]

CLint scaled at 0.8 µM [1, 14]: 356 ± 31.9 mL/min/kg
Compound: CCCC(C)N1CCC(N(Cc2ccccc2)C(=O)Nc2ccc(C)cc2)CC1 (stereo not shown) [Compound 28]

CLint scaled at 0.8 µM [1, 14]: 323 ± 4.46 mL/min/kg
Compound: CCCC(C)N1CCC(N(Cc2ccccc2)C(=O)Nc2ccc(C(C)C)cc2)CC1 (stereo not shown) [Compound 29]

CLint scaled at 0.8 µM [1, 16]: 151 ± 10.2 mL/min/kg
Compound: CCCC(C)N1CCC(N(Cc2ccccc2)C(=O)Nc2ccc(Cl)c([N+](=O)[O-])c2)CC1 (stereo not shown) [Compound 31]

CLint scaled at 0.8 µM [1, 16]: 302 ± 15.2 mL/min/kg
Compound: CCCC(C)N1CCC(N(Cc2ccccc2)C(=O)Nc2ccc(F)c(F)c2)CC1 (stereo not shown) [Compound 32]

CLint scaled at 0.8 µM [1, 16]: 381 ± 31.9 mL/min/kg
Compound: CCCC(C)N1CCC(N(Cc2ccccc2)C(=O)Nc2ccc(C)c(F)c2)CC1 (stereo not shown) [Compound 33]

CLint scaled at 0.8 µM [1, 16]: 145 ± 9.51 mL/min/kg
Compound: CCCC(C)N1CCC(N(Cc2ccccc2)C(=O)Nc2ccc(F)c(C(F)(F)F)c2)CC1 (stereo not shown) [Compound 35]

CLint scaled at 0.8 µM [1, 16]: 291 ± 22.4 mL/min/kg
Compound: CCCC(C)N1CCC(N(Cc2ccccc2)C(=O)Nc2cc(F)cc(C(F)(F)F)c2)CC1 (stereo not shown) [Compound 36]

CLint scaled at 0.8 µM [1, 16]: 66.9 ± 5.15 mL/min/kg
Compound: CCCC(C)N1CCC(N(Cc2ccccc2)C(=O)Nc2cc(C(F)(F)F)ccc2F)CC1 (stereo not shown) [Compound 38]

CLint scaled at 0.8 µM [1, 16]: 230 ± 13.1 mL/min/kg
Compound: CCCC(C)N1CCC(N(Cc2ccccc2)C(=O)Nc2cc(Cl)ccc2F)CC1 (stereo not shown) [Compound 39]

CLint scaled at 0.8 μM [1, 16]: < 13.5 mL/min/kg
Compound: CCCC(C)N1CCC(N(Cc2ccccc2)C(=O)Nc2ccc(C(F)(F)F)nc2C)CC1 (stereo not shown) [Compound 41]

CLint scaled at 0.8 µM [1, 16]: 240 ± 24 mL/min/kg
Compound: CCCC(C)N1CCC(N(Cc2ccccc2)C(=O)Nc2ccc3ncsc3c2)CC1 (stereo not shown) [Compound 42]

CLint scaled at 0.8 μM [1, 16]: ≥ 500 mL/min/kg
Compound: CCCC(C)N1CCC(N(Cc2ccccc2)C(=O)Nc2ccc3c(c2)CCC3)CC1 (stereo not shown) [Compound 43]

CLint scaled at 0.8 μM [1, 18]: ≥ 500 mL/min/kg
Compound: CCCCN1CCC(N(Cc2ccccc2)C(=O)Nc2cccc(Cl)c2)CC1 [Compound 63]

CLint scaled at 0.8 µM [1, 18]: 305 ± 4.02 mL/min/kg
Compound: CCCCN1CCC(N(Cc2ccccc2)C(=O)Nc2cccc(C)c2)CC1 [Compound 64]

CLint scaled at 0.8 µM [1, 18]: 349 ± 22.5 mL/min/kg
Compound: CCCCN1CCC(N(Cc2ccccc2)C(=O)Nc2cccc(C#N)c2)CC1 [Compound 66]

CLint scaled at 0.8 µM [1, 18]: 189 ± 14.5 mL/min/kg
Compound: CCCCN1CCC(N(Cc2ccccc2)C(=O)Nc2ccc(C)c(Cl)c2)CC1 [Compound 71]

CLint scaled at 0.8 µM [1, 18]: 38.7 ± 1.63 mL/min/kg
Compound: CCCCN1CCC(N(Cc2ccccc2)C(=O)Nc2ccc(F)c(Cl)c2)CC1 [Compound 72]
